# Measurements: US12233041B2, “Disulfonate stilbenes for use in the treatment of proliferative diseases” (UNIVERSITÉ DE NANTES, priority 2018, dated 2025)
# “Also recorded” adds a separate entry of the source. Read-outs that look alike come from different tables or passages of the source.
# Legend:
# DU-145 cell line = test: Clonogenicity test, sensitizing effect with an antineoplastic drug; format: cell-based; details: Homo sapiens, DU-145, B-2 20 μM
# Method: Clonogenicity tests are carried out against several model cell lines derived from cancer including prostate cancer (DU-145). Cells are exposed to an anti-cancer agent targeting DNA (cisplatin or camptothecin). Damaged cells are counted and seeded in the presence or in the absence of B-2 in triplicate culture plates. After about two weeks of incubation at 37° C. the number of clones formed is counted. Each cell capable of repairing its lesions will then form a clone. After counting, the percentage of survival will be calculated relative to the control condition for which it is considered that there is 100% survival.
# The main interest of RAD51 protein inhibitors is the sensitization of chemo-resistant or radio-resistant cancerous cell lines. Clonogenicity evaluation was carried out on the DU-145 cell line treated with cisplatin treatment in the presence or in the absence of disulfonate stilbene B-2 (RAD51 protein inhibitor).
# DU-145 cell line was treated with camptothecin in the presence or in the absence of disulfonate stilbene B-2 (RAD51 protein inhibitor) and the clonogenic cell survival was determined.
# HsRad51 = target: T1, HsRad51 (Homo sapiens, UniProt Q06609); test: RAD51 oligomerization by SDS-PAGE gel after crosslink; format: biochemical; details: 2.5 μM HsRad51, disuccinimidyl suberate crosslink, SDS-PAGE/Western blot; FIG. 1
# T1 sequence (Q06609 1-339): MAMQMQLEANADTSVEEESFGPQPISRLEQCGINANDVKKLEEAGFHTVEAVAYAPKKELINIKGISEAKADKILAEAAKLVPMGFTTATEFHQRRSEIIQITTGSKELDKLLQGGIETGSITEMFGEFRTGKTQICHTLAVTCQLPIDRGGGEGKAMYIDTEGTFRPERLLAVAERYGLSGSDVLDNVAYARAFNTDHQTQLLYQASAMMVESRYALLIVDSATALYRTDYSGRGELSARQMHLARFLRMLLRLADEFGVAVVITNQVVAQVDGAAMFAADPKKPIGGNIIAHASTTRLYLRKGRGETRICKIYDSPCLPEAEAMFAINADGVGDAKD
# Method: The reaction was performed at room temperature. 2.5 μm HsRad51 was incubated with the indicated concentrations of tested compounds for 10 min in a buffer containing 20 mm sodium phosphate, 50 mm NaCl, 1 mm MgCl 2, and 1 mm ATP. The cross-linking reactions were initiated by the addition of disuccinimidyl suberate (50 μm) and allowed to proceed for 30 min. Reactions were quenched by the addition of Tris-HCl (pH 7.5, final concentration: 50 mm) followed by subsequent incubations for 15 min. The products were then separated by 12% SDS polyacrylamide gel electrophoresis and detected by Western blot with mouse monoclonal anti-Rad51 antibody (NeoMarkers) and anti-mouse Alexa-Fluor 700-conjugated secondary antibody (Molecular Probes, Eugene, OR). The cross-linked dimer was quantified by an Odyssey Infrared Imaging System scanner (Li-Cor Biosciences) (Martinez, S. F. et al., “Targeting human Rad51 by specific DNA aptamers induces inhibition of homologous recombination”, Biochimie, December 2010, Vol. 92, No. 12, pp. 1832-1838).
# The SDS-PAGE electrophoresis after crosslink maintains and immobilizes the RAD51 protein complexes and thus allows visualization of the degree of oligomerization (polymer formation) of the RAD51 protein. The effect of RAD51 protein inhibitors B-1, B-2, B-3, DIDS and X-4 on this key step of RAD51 protein recombinase activity has thus been evaluated. The results are presented on FIG. 1.
# [1] = test system: RAD51 foci in DU-145 cells; test: Rad51 foci quantification by immunofluorescence; format: cell-based; details: DU-145, B-2 20 μM + cisplatin 30 μM; FIG. 8
# Method: DU-145 cells were grown on coverslips (Life Technologies) at a density of 5×10^3 cells per well in medium (RPMI) supplemented with 10% fetal bovine serum (Gibco-Invitrogen). Cells were treated with Cisplatin at 30 μM for 1 hour in presence or in absence of RAD51 inhibitor B-2 at 20 μM, and then the medium was replaced with molecule-free medium. After 18 h, cells were washed once in PBS for 5 min and fixed with ethanol absolute for 25 min.
# The fixed cells were incubated for 1 h in the PBS buffer containing 1:1000 diluted anti-RAD51 antibody at room temperature. After three 5-min washes in PBS, slides were incubated with PBS solution containing the secondary antibody conjugated with AlexaFluor 555 ([…]) for 45 min in dark room. […] The images were recorded with NIS Element software (Version 3.6, Nikon, Tokyo, Japan). The quantification of RAD51 foci was processed with a program derived from Fiji-ImageJ software (NIH, Bethesda, Maryland, USA). […]
# The treatment with Cisplatin alone induces a high level of RAD51 foci, whereas this level is decreased when the treatment is associated with B-2 20 μM. After the quantification of the number of RAD51 foci per cell, the number of cells containing more than 20 RAD51 foci was determined.
smiles,measurement,setting,value
"N#Cc1ccc(/C=C/c2ccc(C#N)cc2S(=O)(=O)[O-])c(S(=O)(=O)[O-])c1.[Na+].[Na+] [B-2, Sodium (E)-6,6′-(ethene-1,2-diyl)bis(3-cyanobenzenesulfonate)]",percent decrease of IC50 at 20 µM,DU-145 cell line; read-out: decrease of growth inhibition IC50 for camptothecin in presence of B-2,~90%
same,percent decrease of IC50 at 20 µM,DU-145 cell line; read-out: decrease of growth inhibition IC50 for cisplatin in presence of B-2,~40%
same,oligomerization state of RAD51 protein,HsRad51,significant reduction; also recorded: very strongly diminished
same,decrease of level of RAD51 foci mediated by cisplatin (cells containing more than 20 RAD51 foci),[1],about 20%
